# Results from patent US4017534A, “16-Fluoro-11-deoxy-13-dihydro-prostaglandin” (American Cyanamid Company, priority 1975, dated 1977).
# Key:
# [1] = system: bronchospasms elicited by 5-hydroxytryptamine; test: Bronchodilator activity (intraduodenal route) against 5-hydroxytryptamine; type: in vivo, guinea pigs; set-up: key: 0: no activity; +: minimal activity; ++++: maximum activity; conditions: intraduodenal dose 3.2 mg./kg.
# Description: (§1) The compounds of this invention are useful as bronchodilators for the treatment of asthma and chronic bronchitis. Bronchodilator activity is determined in guinea pigs against bronchospasms elicited by intravenous injections of 5-hydroxytryptamine, histamine or acetylcholine by the Konzett procedure. [See J. Lulling, P. Lievens, F. El Sayed and J. Prignot, Arzneimittel-Forschung, 18, 995 (1968).]
# (§2) In Table A' which follows bronchodilator activity for representative compounds of this invention against one or more of three spasmogenic agents is reported. In this assay candidate compounds are suspended in 10% gum arabic solution and the suspension is administered by the intraduodenal route. The activity of the compound at any one dose is then investigated throughout the following hour (see above-cited reference, J. Lulling et al.). Potency is then reported as O, +, ++, +++, or ++++, wherein 0 represents no activity, + minimal activity and ++++ maximum activity.
# [2] = system: bronchospasms elicited by acetylcholine; test: Bronchodilator activity (intraduodenal route) against acetylcholine; type: in vivo, guinea pigs; set-up: key: 0: no activity; +: minimal activity; ++++: maximum activity; conditions: intraduodenal dose 3.2 mg./kg.
# Description: as §1, §2
structure (smiles),measurement,setting,value
"CCCCC[C@H](O)CC[C@H]1CCC2(OCCCO2)[C@@H]1CCCCCCC(=O)O [l-15(S)-hydroxy-9,9-(propylenedioxy)-prostanoic acid]","Bronchodilator potency, Spasmogenic Agent 5-Hydroxytryptamine",[1],+
same,"Bronchodilator potency, Spasmogenic Agent Acetylcholine",[2],+
